Measured values reported in patent publication US10597398B2, “Suppression and regeneration promoting effect of low molecular weight compound on cancer and fibrosis” (NATIONAL UNIVERSITY CORPORATION TOTTORI UNIVERSITY, priority 2015, dated 2020).

Legend:
Wnt/β-catenin signaling = test: Inhibitory effect on Wnt/β-catenin signaling in liver cancer cells (HuH7-TCF4 luciferase); type: cell-based, human; conditions: concentration equal to or lower than that of IC-2
Summary of the method: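 HuH-7 cells stably carrying a 3×TCF4-motif firefly luciferase reporter, treated 48 h at 37 °C with compounds at concentrations reducing HuH-7 growth to about 50% or less (n=3). Firefly luciferase luminescence read from lysates; 0.1% DMSO solvent control, 0.5 μM 5-FU control; Student's t-test.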

[1] = test system: DLD-1 cells (colon cancer cells); test: Growth of colon cancer cells (Cell Counting Kit-8); type: cell-based; conditions: 10 or 50 μM, 48 h
Protocol: DLD-1 cells (colon cancer cells) were cultured on 10-cm cell culture dishes (TPP Techno Plastic Products AG, Trasadingen, Switzerland) by using DMEM under conditions at 5% CO2, 37° C., and 100% humidity. For passage, 70 to 90% confluent cells were washed with PBS(−), and 300 μL of 0.25% Trypsin/1 mM EDTA per 2 mL of PBS(−) was added thereto. The cells were incubated at 37° C. for 5 min and were then detached. After that, 5 mL of DMEM was used to collect the cells. The cells collected were centrifuged at 1000 rpm for 3 min to remove a supernatant. The cells were then suspended in DMEM and were split at a 1:4 ratio.
DLD-1 cells were seeded at 5×10^5 cells/well of a 96-well plate (TPP). After 24 h, the cells were treated with 0, 10, or 50 μM of IC-2. Next, 48 h after the treatment, 100 μL of 10% Cell Counting Kit-8 (DOJINDO LABORATORIES, Kumamoto) was added. The mixture was incubated at 37° C. and its absorbance (at a measurement wavelength of 450 nm/control wavelength of 600 nm) was measured by using a Sunrise Rainbow RC (Tecan Group Ltd., Mannedorf, Switzerland).

Row | SMILES | inhibitory effect on Wnt/β-catenin signaling pathway in liver cancer cells compared with IC-2 (Wnt/β-catenin signaling) | growth inhibitory effect on colon cancer cells [1]
1 | COc1ccc(COc2ccc(CNC(=O)N3CCC(=O)N4C(Cc5ccccc5)C(=O)N(Cc5cccc6ccccc56)CC34)cc2)cc1 (centres unmarked) [IC-2-OPMB] | more potent inhibitory effect | –
2 | O=C1C(Cc2ccccc2)N2C(=O)CCN(C(=O)NCc3ccccc3)C2CN1Cc1cccc2ccccc12 (centres unmarked) [IC-2] | – | elicited a growth inhibitory effect
